# Measured values as given in PMC5954004, “19th European Symposium on Radiopharmacy and Radiopharmaceuticals (ESRR’18)” (EJNMMI Radiopharmacy and Chemistry, 2018).
# Where two headings read alike, the source gives them in different places.
# Legend:
# [1] = molecular target: gastrin-releasing peptide receptor (GRPr) (human (endogenous in PC-3, T47D, MDA-MB-231)) (UniProt P30550)
# [2] = 68Ga-labelled conjugates
# Protocol: (§3) Tz functionalization was performed by reaction with NHS-PEG5-Tz with FSC (resulting in the trimer FSC-(PEG5-Tz)3), MAFC (resulting in the dimer MAFC-(PEG5-Tz)2) and DAFC (resulting in the monomer DAFC-(PEG5-Tz), starting from its ferric complex with final iron removal by EDTA, HPLC purification and characterization by MS. ^68Ga-labelling was performed in acetate buffer (pH 4.5) at high s.a., resulting complexes were characterized by HPLC, protein binding, log P and stability was assessed. Rituximab was functionalized with NHS-TCO according to published procedures (Rtx-TCO). Binding of Tz-conjugates to TCO was assessed on Rtx-TCO immobilized 96well plates as well as after binding of Rtx-TCO vs Rtx to Raji cells expressing CD20 followed by incubation with 68Ga-Tz-conjugate. Biodistribution was studied in normal balb-c mice.
# [3] = test system: Raji cells expressing CD20; assay: binding of 68Ga-Tz-conjugate after binding of Rtx-TCO to Raji cells; assay type: cell-based
# [4] = 68Ga-labelled conjugates; remark: listed apart in the source
# Protocol: as §3
# [5] = 37°C, 24h incubation
# Protocol: Methods: 177Lu-DOTATATE (Lutathera®) was diluted to 1/5th in saline, 5% Glucose, Bicarbonate 8.4% solution, Ringer-Lactate, octreotide solution, octreotide LAR or incubated at 37°C in plasma or plasma enriched with 10% de octreotide. Radiochemical purity (RPC) was determined by ITLC-SG in 0.1mol/L sodium citrate pH=3. […] RPC was also determined using C18 Sep-Pack-Plus cartridge (Waters, USA). The free radionuclide was eluted with 5mL of 0.1mol/L acetate buffer pH=3 and the labelled peptide with 5mL of methanol, and hydroxylated Lu-177 remained inside the cartridge. Mixtures were then analyzed immediately, 30min and 24h after dilution. […] Binary comparisons to the undiluted product were made by a Mann-and-Whitney U test and stability over time checked by a 1-way ANOVA (p < 5%).
# mGluR1 = molecular target: T1, mGluR1 (Mus musculus, UniProt P97772); assay: [11C]ITDM microPET in mouse brain; assay type: in vivo
# T1 construct: PET probe for imaging the kinetics of mGluR1 in mouse brain; from tissue; host or cells: brain of living WT Q175DN mice
# T1 sequence (P97772 21-1199): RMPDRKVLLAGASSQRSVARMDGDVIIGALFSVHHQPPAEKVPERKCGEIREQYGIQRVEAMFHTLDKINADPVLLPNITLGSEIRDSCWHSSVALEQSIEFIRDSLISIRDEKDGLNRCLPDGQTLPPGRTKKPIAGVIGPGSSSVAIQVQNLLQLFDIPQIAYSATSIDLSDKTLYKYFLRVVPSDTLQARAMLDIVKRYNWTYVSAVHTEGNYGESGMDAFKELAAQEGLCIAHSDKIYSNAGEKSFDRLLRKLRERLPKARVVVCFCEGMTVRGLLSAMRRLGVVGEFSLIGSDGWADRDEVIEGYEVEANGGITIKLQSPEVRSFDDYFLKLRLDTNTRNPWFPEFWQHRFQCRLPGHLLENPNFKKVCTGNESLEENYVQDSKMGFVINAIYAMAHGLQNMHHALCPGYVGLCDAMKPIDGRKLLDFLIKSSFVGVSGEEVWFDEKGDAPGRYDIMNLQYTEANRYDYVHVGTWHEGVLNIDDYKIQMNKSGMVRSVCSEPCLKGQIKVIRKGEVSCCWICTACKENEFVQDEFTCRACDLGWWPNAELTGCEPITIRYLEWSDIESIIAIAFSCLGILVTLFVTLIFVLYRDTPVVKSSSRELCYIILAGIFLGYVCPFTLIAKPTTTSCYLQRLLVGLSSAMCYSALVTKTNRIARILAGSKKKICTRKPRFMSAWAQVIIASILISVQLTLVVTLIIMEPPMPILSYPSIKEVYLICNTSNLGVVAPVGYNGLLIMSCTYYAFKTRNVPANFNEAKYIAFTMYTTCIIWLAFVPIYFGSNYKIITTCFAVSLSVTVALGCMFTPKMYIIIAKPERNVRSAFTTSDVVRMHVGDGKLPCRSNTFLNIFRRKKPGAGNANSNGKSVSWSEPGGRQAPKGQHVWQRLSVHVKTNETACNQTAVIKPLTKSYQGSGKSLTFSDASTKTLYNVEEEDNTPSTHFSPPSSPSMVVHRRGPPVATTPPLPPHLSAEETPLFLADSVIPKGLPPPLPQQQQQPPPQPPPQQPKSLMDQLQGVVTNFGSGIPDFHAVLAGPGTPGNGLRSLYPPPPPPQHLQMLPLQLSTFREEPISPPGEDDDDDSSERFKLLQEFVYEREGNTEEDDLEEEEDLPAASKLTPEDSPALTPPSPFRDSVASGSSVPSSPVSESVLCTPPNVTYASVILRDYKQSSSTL
# Protocol: Methods: We validated [^11C]ITDM as a PET probe for imaging the kinetics of mGluR1 in mouse brain. [^11C]ITDM was prepared by modification of a previously described method^1 in a module (Comecer Netherlands) adapted for automated production. In a cooled solution containing the arylstannane precursor (1.9mg), K2CO3 (2.1mg), CuCl2 (1.5mg), Pd2(dba)3 (1.3mg) and P(o-tol)3 (1.7mg) in DMF purged with N2, [^11C]MeI was bubbled, followed by reaction at 65°C for 5min. The mixture was purified by reverse phase semi-preparative HPLC (tR=8.5min), using MeCN:H2O:Et3N (6:4:0.01, V/V/V) as mobile phase (2.7mL/min) followed by sterile formulation into ethanolic saline containing 0.5% ascorbic acid, using a C18 Sep-Pak cartridge. For in vivo evaluation, WT Q175DN mice (n = 9; 11 months old) were intravenously (i.v.) injected with [^11C]ITDM (5.69±2.4MBq; injected mass=0.87±0.33μg/kg) and dynamically scanned for 90min (Siemens Inveon μPET/CT). To validate target engagement, blocking and displacement studies with mGluR1 antagonist YM-202074 (20mg/kg; i.v.; 2min before and 30min after tracer injection, respectively) were performed. Total volume of distribution (VT) (from 2TCM) was calculated noninvasively using an image-derived input function (IDIF) in several brain regions.
# [6] = 1h p.i., normal balb-c mice
# Protocol: as §3
# Capan-1 cells = assay: clonogenic survival assay, Capan-1; assay type: cell-based
# Protocol: (§1) Methods: Flow cytometry: EGFR density was measured on AsPC-1, PANC-1, MiaPACA-2, and Capan-1 cell lines. Cells were incubated with panitumumab for 60 min, then with Alexa Fluor 647 anti-human IgG immunoconjugates for 30 min at 4°C, then run on a flow cytometer. Clonogenic survival assays: Cells were treated with γ-radiation (0-8Gy) or ^177Lu-RIT (0-3MBq/72nM) then seeded in into 6-well plates and allowed to grow at 37°C, 5% CO2, for 14 days. Then colonies were fixed/stained and counted. Subcellular fractionation: Cells were treated with ^177Lu-RIT (1MBq/72nM) for 1, 3, 4, and 24 hours. Radioactivity associated with cell surface, cytoplasm, and nucleus was separated then measured in a γ-counter.
# PANC-1 cells = assay: clonogenic survival assay, PANC-1; assay type: cell-based
# Protocol: as §1
# AsPC-1 cells = assay: clonogenic survival assay, AsPC-1; assay type: cell-based
# Protocol: as §1
# MIAPaca-2 cells = assay: clonogenic survival assay, MIAPaca-2; assay type: cell-based
# Protocol: as §1
# GABAB receptors = molecular target: T2, GABAB receptors (Mus musculus, UniProt Q9WV18); assay type: in vivo, mice
# T2 construct: from tissue; host or cells: brain of CD-1 male mice (in vivo / ex vivo)
# T2 sequence (Q9WV18 20-960): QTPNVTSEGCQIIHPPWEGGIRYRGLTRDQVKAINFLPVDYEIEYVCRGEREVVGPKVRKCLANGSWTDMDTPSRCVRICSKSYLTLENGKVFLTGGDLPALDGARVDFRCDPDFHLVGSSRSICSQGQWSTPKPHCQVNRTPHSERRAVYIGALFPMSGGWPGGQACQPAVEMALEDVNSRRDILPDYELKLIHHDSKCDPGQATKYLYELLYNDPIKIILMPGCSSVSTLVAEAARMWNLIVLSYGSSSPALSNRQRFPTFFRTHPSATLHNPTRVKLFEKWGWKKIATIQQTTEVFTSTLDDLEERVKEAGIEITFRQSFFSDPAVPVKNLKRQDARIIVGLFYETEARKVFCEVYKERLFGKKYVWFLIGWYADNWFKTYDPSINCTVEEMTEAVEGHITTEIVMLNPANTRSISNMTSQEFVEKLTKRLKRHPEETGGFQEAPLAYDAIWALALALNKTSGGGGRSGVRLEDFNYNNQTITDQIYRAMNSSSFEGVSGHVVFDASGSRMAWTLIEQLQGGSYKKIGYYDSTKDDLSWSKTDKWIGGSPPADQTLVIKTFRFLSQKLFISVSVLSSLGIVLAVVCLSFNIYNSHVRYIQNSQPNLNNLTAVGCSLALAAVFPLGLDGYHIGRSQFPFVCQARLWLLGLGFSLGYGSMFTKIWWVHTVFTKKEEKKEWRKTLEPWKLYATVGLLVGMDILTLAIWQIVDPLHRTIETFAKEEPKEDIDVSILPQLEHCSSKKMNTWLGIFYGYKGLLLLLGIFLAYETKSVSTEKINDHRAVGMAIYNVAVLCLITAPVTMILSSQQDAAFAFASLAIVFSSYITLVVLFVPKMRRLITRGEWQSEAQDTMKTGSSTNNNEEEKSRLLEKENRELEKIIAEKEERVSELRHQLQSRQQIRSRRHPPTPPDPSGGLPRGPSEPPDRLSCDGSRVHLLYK
# T2 sequence (Q80T41 41-940 partner): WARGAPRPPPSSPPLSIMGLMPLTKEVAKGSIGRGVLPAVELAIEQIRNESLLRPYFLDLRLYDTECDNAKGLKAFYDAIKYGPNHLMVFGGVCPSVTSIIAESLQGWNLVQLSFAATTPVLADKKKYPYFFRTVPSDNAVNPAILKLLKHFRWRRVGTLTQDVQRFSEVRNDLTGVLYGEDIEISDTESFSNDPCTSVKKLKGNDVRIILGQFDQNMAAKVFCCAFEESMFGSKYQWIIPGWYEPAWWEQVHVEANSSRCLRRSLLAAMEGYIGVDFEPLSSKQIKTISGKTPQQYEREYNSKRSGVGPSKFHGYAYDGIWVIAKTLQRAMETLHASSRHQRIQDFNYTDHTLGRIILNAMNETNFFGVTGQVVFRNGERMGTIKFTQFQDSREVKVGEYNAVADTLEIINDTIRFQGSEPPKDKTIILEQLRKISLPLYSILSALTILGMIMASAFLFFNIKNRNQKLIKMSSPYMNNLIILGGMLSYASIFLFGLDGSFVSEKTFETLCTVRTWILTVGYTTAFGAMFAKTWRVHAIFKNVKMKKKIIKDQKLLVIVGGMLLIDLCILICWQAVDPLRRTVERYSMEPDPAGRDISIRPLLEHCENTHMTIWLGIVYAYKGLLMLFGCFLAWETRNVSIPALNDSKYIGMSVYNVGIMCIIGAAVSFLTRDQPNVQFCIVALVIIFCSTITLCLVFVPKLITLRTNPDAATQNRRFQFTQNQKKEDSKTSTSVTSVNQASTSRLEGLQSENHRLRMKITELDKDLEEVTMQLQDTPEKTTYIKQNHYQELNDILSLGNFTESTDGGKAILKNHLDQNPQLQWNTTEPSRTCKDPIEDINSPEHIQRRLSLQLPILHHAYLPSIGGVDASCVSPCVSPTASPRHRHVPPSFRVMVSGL
# Protocol: Methods: New GABAB agonists, fluoropyridylmethoxy analogues of baclofen, were synthesized. The in vitro potency of these new compounds was determined commercially. […] The regional brain distribution of the radiolabeled [^18F]1 was studied in CD-1 male mice.
# A431-CCK2R cells = assay: internalisation into A431-CCK2R cells; assay type: cell-based, human
# in vivo = conditions: BALB/c nude, mouse, total radioactivity
# Protocol: (§2) Methods: The new MG analogue DOTA-MGS5 was designed based on a combination of the substitutions applied in peptide derivatives previously developed by our group (1). The in vitro and in vivo characterisation after radiolabelling with In-111 and Lu-177 included stability analyses of the radioligands incubated in rat tissue homogenates and after injection into BALB/c mice. Receptor interaction in terms of receptor affinity and cell uptake was analysed using A431 human epidermoid carcinoma cells transfected with human CCK2R (A431-CCK2R) and mock-transfected cells (A431-mock). The targeting potential was evaluated by small animal dual modality single photon emission computed tomography (NanoSPECT/CT) as well as ex vivo biodistribution studies in tumour bearing BALB/c nude mice up to 4 h after injection.
# [7] = after 10 min, BALB/c mice in vivo
# Protocol: as §2
# [8] = plutonium decorporation in rats; assay type: in vivo; conditions: delayed administration, of the levels in untreated control rats
# Protocol: Methods: Unilamellar liposomes (DSPC/Cholesterol/DSPE 69:30:1) were used to encapsulate DTPA (25mM). For decorporation experiments, rats were first contaminated by intravenous administration of the soluble citrate form of ^238Pu (4 to 10.3 kBq), before injection of DTPA, marketed free form or encapsulated in liposomes (2.25 at 6.74 μmol/kg). Treatment schedules started at one hour (prompt treatment) or at seven days (delayed treatment) after contamination and were given as a single injection or repeated injections. A prophylactic single treatment was also tested given at three days before contamination. Organs of interest (liver, bone and spleen mainly) and excreta were collected at different times for measurement of Pu alpha activity.
# [9] = plasma enriched with octreotide
# [10] = 2TCM, image-derived input function, WT Q175DN mice n = 9
# Sequence of gastrin-releasing peptide receptor (GRPr) (human (endogenous in PC-3, T47D, MDA-MB-231)) (P30550 whole entry, stated change not applied): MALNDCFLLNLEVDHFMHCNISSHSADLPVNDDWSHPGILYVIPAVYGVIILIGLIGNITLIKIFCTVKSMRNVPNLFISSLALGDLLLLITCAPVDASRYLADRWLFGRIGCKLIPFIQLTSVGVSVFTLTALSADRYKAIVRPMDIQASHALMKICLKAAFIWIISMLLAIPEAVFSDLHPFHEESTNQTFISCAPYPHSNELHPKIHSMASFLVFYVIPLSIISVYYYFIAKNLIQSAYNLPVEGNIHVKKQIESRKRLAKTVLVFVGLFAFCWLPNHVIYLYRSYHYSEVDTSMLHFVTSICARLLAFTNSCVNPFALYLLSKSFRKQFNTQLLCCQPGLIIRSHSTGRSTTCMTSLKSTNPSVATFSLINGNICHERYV
molecule,measurement,setting,value
"GRPr antagonist H2N-4-amino-1-carboxymethyl piperidine-[(R)-Phe^6, Sta^13]BN(6-14) linked to the chelator HBED-CC, labelled with 68Ga (peptide)","cell bound, % given radioactivity (MDA-MB-231+ cells, 1 h) (% given radioactivity)",[1],3
same,"cell bound, % given radioactivity (PC-3+ cells, 1 h) (% given radioactivity)",[1],30
same,"cell bound, % given radioactivity (T47D+ cells, 1 h) (% given radioactivity)",[1],9
"CC(=O)NC1CCCN(O)C(=O)/C=C(/C)CCOC(=O)C(NC(=O)CCOCCOCCOCCOCCOCCC(=O)NCc2ccc(-c3nncnn3)cc2)CCCN(O)C(=O)/C=C(/C)CCOC(=O)C(NC(=O)CCOCCOCCOCCOCCOCCC(=O)NCc2ccc(-c3nncnn3)cc2)CCCN(O)C(=O)/C=C(/C)CCOC1=O (stereo not drawn) (68Ga complex, metal not drawn) [MAFC-(PEG5Tz)2]",protein binding,[2],exceeded 50%
same,binding after binding of Rtx-TCO to CD20 expressing cells,[3],7.75 ± 0.56%
same,log p,[4],below -1
"C[C@@H](O)[C@H](NC(=O)[C@@H]1CSSC[C@H](NC(=O)[C@@H](Cc2ccccc2)NC(=O)CN2CCN(CC(=O)O)CCN(CC(=O)O)CCN(CC(=O)O)CC2)C(=O)N[C@@H](Cc2ccc(O)cc2)C(=O)N[C@H](Cc2c[nH]c3ccccc23)C(=O)N[C@@H](CCCCN)C(=O)N[C@@H]([C@@H](C)O)C(=O)N1)C(=O)O [177Lu-DOTATATE, metal not drawn]",hydroxylated Lutetium,[5]; [9],6.3%±1.8%
same,unbound lutetium,[5]; [9],4.8%±0.8%
same,hydroxylated Lutetium,"[5]; plasma, mean±SD n = 3-4",4.9%±1.3%
same,unbound lutetium,"[5]; plasma, mean±SD n = 3-4",4.2%±0.6%
COCCN(C)Cc1ccc2c(c1)nc1sc(C(=O)N(C)C3CCCCC3)cn12 [YM-202074],blockade and displacement of [11C]ITDM,"mGluR1; 20mg/kg i.v., 2min before and 30min after tracer injection, all investigated brain regions",significant blockade and displacement
CC(C)Nc1cc(-c2csc(N(C)C(=O)c3ccc([11CH3])cc3)n2)ncn1 [[^11C]ITDM],VT cerebellum,mGluR1; [10],9.1±2.1 mL/cm^3
same,VT thalamus,mGluR1; [10],8.2±2.1 mL/cm^3
"CC(=O)NC1CCCN(O)C(=O)/C=C(/C)CCOC(=O)C(NC(=O)CCOCCOCCOCCOCCOCCC(=O)NCc2ccc(-c3nncnn3)cc2)CCCN(O)C(=O)/C=C(/C)CCOC(=O)C(NC(C)=O)CCCN(O)C(=O)/C=C(/C)CCOC1=O (stereo not drawn) (68Ga complex, metal not drawn) [DAFC-(PEG5Tz)]",protein binding,[2],exceeded 50%
same,blood levels,[6],1 %ID/g
same,binding after binding of Rtx-TCO to CD20 expressing cells,[3],4.01 ± 0.24%
same,log p,[4],below -1
^177Lu-RIT: panitumumab modified with a NOTA chelator and radiolabeled with 177Lu,D10 (clonogenic survival reduced to 10%),Capan-1 cells; Capan-1,1 MBq
same,RBE,"Capan-1 cells; Capan-1, compared to γ-radiation",0.3
same,D10 after 177Lu-RIT,"Capan-1 cells; Capan-1, microdosimetry",8.2 Gy
same,D10 (clonogenic survival reduced to 10%),PANC-1 cells; PANC-1,1.1 MBq
same,RBE,"PANC-1 cells; PANC-1, compared to γ-radiation",1.0
same,D10 after 177Lu-RIT,"PANC-1 cells; PANC-1, microdosimetry",5.7 Gy
same,D10 (clonogenic survival reduced to 10%),AsPC-1 cells; AsPc-1,3.1 MBq
same,RBE,"AsPC-1 cells; AsPc-1, compared to γ-radiation",0.2
same,D10 after 177Lu-RIT,"AsPC-1 cells; AsPc-1, microdosimetry",16.9 Gy
same,D10 (clonogenic survival reduced to 10%),MIAPaca-2 cells; MIAPaca-2,6.0 MBq
same,RBE,"MIAPaca-2 cells; MIAPaca-2, compared to γ-radiation",0.2
same,D10 after 177Lu-RIT,"MIAPaca-2 cells; MIAPaca-2, microdosimetry",23.3 Gy
"NC[C@H](CC(=O)O)c1ccc(Cl)c(OCc2ccnc(F)c2)c1 [[^18F]1, (R)-4-amino-3-(4-chloro-3-((2-fluoropyridin-4-yl)methoxy)phenyl) butanoic acid]",mouse brain uptake,GABAB receptors; CD-1 male mice,1 % ID/g tissue
same,inhibition of accumulation in the mouse brain,GABAB receptors; pre-injection of a selective GABAB agonist,35%
"CCCC[C@@H](C(=O)N[C@@H](CC(=O)O)C(=O)N[C@@H](Cc1cccc2ccccc12)C(N)=O)N(C)C(=O)[C@H](Cc1c[nH]c2ccccc12)NC(=O)CNC(=O)[C@H](Cc1ccc(O)cc1)NC(=O)[C@H](C)NC(=O)[C@@H](CCC(=O)O)NC(=O)CN1CCN(CC(=O)O)CCN(CC(=O)O)CCN(CC(=O)O)CC1 [^111In-DOTA-MGS5, metal not drawn]",internalisation into A431-CCK2R cells,A431-CCK2R cells; after 1 h,> 40%
same,internalisation into A431-CCK2R cells,A431-CCK2R cells; after 4 h,> 80%
same,tissue uptake at 4 h,"in vivo; A431-CCK2R tumour, tumour uptake, 4 h p.i.",23.5 ± 1.3 %ID/g
same,"stability in blood, intact peptide",[7],> 80%
O=C(O)CN(CCN(CC(=O)O)CC(=O)O)CCN(CC(=O)O)CC(=O)O [free DTPA],decrease of hepatic Pu level,[8],19%
same,decrease of skeletal Pu level,[8],12%
same,decrease of splenic Pu level,[8],24%
"C/C1=C/C(=O)N(O)CCCC(NC(=O)CCOCCOCCOCCOCCOCCC(=O)NCc2ccc(-c3nncnn3)cc2)C(=O)OCC/C(C)=C\C(=O)N(O)CCCC(NC(=O)CCOCCOCCOCCOCCOCCC(=O)NCc2ccc(-c3nncnn3)cc2)C(=O)OCC/C(C)=C\C(=O)N(O)CCCC(NC(=O)CCOCCOCCOCCOCCOCCC(=O)NCc2ccc(-c3nncnn3)cc2)C(=O)OCC1 (stereo not drawn) (68Ga complex, metal not drawn) [FSC-(PEG5Tz)3]",protein binding,[2],exceeded 50%
same,blood levels,[6],3 %ID/g
same,binding after binding of Rtx-TCO to CD20 expressing cells,[3],15.9 ± 0.88%
same,log p,[4],below -1
"CCCC[C@@H](C(=O)N[C@@H](CC(=O)O)C(=O)N[C@@H](Cc1cccc2ccccc12)C(N)=O)N(C)C(=O)[C@H](Cc1c[nH]c2ccccc12)NC(=O)CNC(=O)[C@H](Cc1ccc(O)cc1)NC(=O)[C@H](C)NC(=O)[C@@H](CCC(=O)O)NC(=O)CN1CCN(CC(=O)O)CCN(CC(=O)O)CCN(CC(=O)O)CC1 [^177Lu-DOTA-MGS5, metal not drawn]",tissue to tissue ratio at 4 h,in vivo; A431-CCK2R tumour / kidneys,> 6
same,tissue to tissue ratio at 4 h,in vivo; A431-CCK2R tumour / stomach,> 3
same,"stability in blood, intact peptide",[7],> 80%
